In experiment [1] the target is T1, C-X-C chemokine receptor type 4 (Homo sapiens, UniProt P61073). In words: Binding affinity to CXCR4 (unknown origin) expressed in CHO cells incubated for 40 mins by competitive binding assay method. It is filed as cell-based.
The nature of experiment [2]: Antiviral activity against HIV1 NL4-3 infected in human CEM-GFP cells assessed as inhibition in viral growth measured after 5 days by 96-well plate assay method. It is filed as functional, cell-based. Conditions: NL4-3, CEM-GFP, 120 h.
In experiment [3] the test system is C-X-C chemokine receptor type 4 (Homo sapiens), P61073 [E288D]. In words: Binding affinity to CXCR4 E288D mutant (unknown origin) by 12G5 competitive binding assay.
The test system of the next experiment is CEM-GFP. The experiment can be described thus: Cytotoxicity against human CEM-GFP cells assessed as cell viability at 10 uM incubated for 5 days by Celltiter-blue assay method. The experiment is classed as functional, cell-based. Conditions: time 5.0 day. (The colour change of resazurin is a common sign of viable cells or microbes.)
Experiment [4] deals with T1, C-X-C chemokine receptor type 4. In words: Antagonist activity at CXCR4 receptor in SDF-1alpha-stimulated human SUP-T1 cells incubated for 30 mins by calcium mobilization assay. It is filed as cell-based.
Experiment [5] shares this target. The experiment can be described thus: Binding affinity to CXCR4 (unknown origin). The conditions noted are these: filed as antagonist.
Experiment [6] concerns C-X-C chemokine receptor type 4 (Homo sapiens), P61073 [E288D]. The experiment can be described thus: Binding affinity to CXCR4 E288D mutant (unknown origin) by competitive binding assay method. The conditions noted are these: filed as antagonist.
Experiment [7] concerns C-X-C chemokine receptor type 4 (Homo sapiens), P61073 [D262A]. The experiment can be described thus: Binding affinity to N-terminus CXCR4 D262A mutant (unknown origin).
Experiment [8] has as its system C-X-C chemokine receptor type 4 (Homo sapiens), P61073 [R30A]. The experiment can be described thus: Binding affinity to N-terminus CXCR4 R30A mutant (unknown origin).
Experiment [9] deals with C-X-C chemokine receptor type 4 (Homo sapiens), P61073 [H113A]. In words: Binding affinity to N-terminus CXCR4 H113A mutant (unknown origin).
Experiment [10] relates to C-X-C chemokine receptor type 4 (Homo sapiens), P61073 [D193A]. In words: Binding affinity to CXCR4 D193A mutant (unknown origin) assessed as reduction in potency. The conditions noted are these: filed as antagonist. Also on record: scale not given: the % may be the effect or the level left.
Experiment [11] has as its system C-X-C chemokine receptor type 4 (Homo sapiens), P61073 [W195A]. In words: Binding affinity to CXCR4 W195A mutant (unknown origin) assessed as reduction in potency. The arrangement: scale not given: the % may be the effect or the level left. Conditions: filed as antagonist.

Activity calls are given as the source filed them. The rule behind the calls is not given here.

18 compounds from ChEMBL document CHEMBL5230085, “Design, synthesis, and biological characterization of a new class of symmetrical polyamine-based small molecule CXCR4 antagonists” (Eur J Med Chem, 2020) can be followed below.

T1 sequence (P61073 whole entry): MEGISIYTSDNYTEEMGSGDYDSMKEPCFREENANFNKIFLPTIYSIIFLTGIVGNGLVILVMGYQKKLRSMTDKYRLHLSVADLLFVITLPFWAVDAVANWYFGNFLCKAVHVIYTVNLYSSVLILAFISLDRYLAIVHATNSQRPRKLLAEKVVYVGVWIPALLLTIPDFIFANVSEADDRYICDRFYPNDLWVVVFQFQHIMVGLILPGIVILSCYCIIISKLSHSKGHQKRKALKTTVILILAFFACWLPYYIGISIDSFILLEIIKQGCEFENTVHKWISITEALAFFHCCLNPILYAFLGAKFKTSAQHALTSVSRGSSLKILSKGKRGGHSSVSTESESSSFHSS
Chain of C-X-C chemokine receptor type 4 (Homo sapiens), P61073 [E288D] (P61073 whole entry E288D): as the sequence (P61073 whole entry) above, with E288D counted along it
Chain of C-X-C chemokine receptor type 4 (Homo sapiens), P61073 [R30A] (P61073 whole entry R30A): as the sequence (P61073 whole entry) above, with R30A counted along it
Chain of C-X-C chemokine receptor type 4 (Homo sapiens), P61073 [D193A] (P61073 whole entry D193A): as the sequence (P61073 whole entry) above, with D193A counted along it
Chain of C-X-C chemokine receptor type 4 (Homo sapiens), P61073 [H113A] (P61073 whole entry H113A): as the sequence (P61073 whole entry) above, with H113A counted along it
Chain of C-X-C chemokine receptor type 4 (Homo sapiens), P61073 [D262A] (P61073 whole entry D262A): as the sequence (P61073 whole entry) above, with D262A counted along it
Chain of C-X-C chemokine receptor type 4 (Homo sapiens), P61073 [W195A] (P61073 whole entry W195A): as the sequence (P61073 whole entry) above, with W195A counted along it

By IC50 is commonly meant the concentration that gives 50% inhibition. Regarding `c1cc(-c2ccc(CNCCCNC3CCCCC3)cc2)ccc1CNCCCNC1CCCCC1`, the IC50 in [1] turned out to be 67.5 nM.
With `O=[N+]([O-])c1cc(CNCCCNC2CCCCC2)cc(CNCCCNC2CCCCC2)c1`, the IC50 in [1] was 147 nM.
Still for that read-out and setting: as for `O=C(NCCCNC1CCCCC1)c1ccc(CNCCCNC2CCCCC2)cc1`, the figure is 699 nM; as for `CN(C)c1cc(CNCCCNC2CCCCC2)cc(CNCCCNC2CCCCC2)c1`, 119 nM; as for `CN(C)c1cc(CNCCCNC2CCCCC2)ccc1CNCCCNC1CCCCC1`, 48 nM.
In experiment [1], `Nc1cc(CNCCCNC2CCCCC2)ccc1CNCCCNC1CCCCC1` returned an IC50 of 68.9 nM.
On the same count and under the same terms, next, `c1cc(CNC2CCCCC2)ccc1CNC1CCCCC1`: over 10000 nM; `O=C(NCCCNC1CCCCC1)c1ccc(C(=O)NCCCNC2CCCCC2)cc1`: 1700 nM; `c1ccc2c(CNCCCNC3CCCCC3)ccc(CNCCCNC3CCCCC3)c2c1`: 40.8 nM.
The same measure, in the same setting: as for `c1cc(CNCCCNC2CCCCC2)cc(CNCCCNC2CCCCC2)c1`, the figure is 155 nM; as for `c1c(CNCCCNC2CCCCC2)cc(CNCCCNC2CCCCC2)cc1CNCCCNC1CCCCC1`, 312 nM.
In the case of `c1cc(CNCCCNC2CCCCC2)ccc1CNCCCNC1CCCCC1`, the IC50 in experiment [2] stood at 1500 nM; in experiment [1], 19.8 nM; in experiment [4] it was 119 nM. For the same compound, the Activity was 30% in [3]; “Not toxic” with CEM-GFP; 60% in experiment [5]; 40% in [6]; 10% in experiment [10]; 10% in experiment [11]. Also, the result in experiment [7], in experiment [8] and in experiment [9] was inactive.
For `c1cc(CNCCCNC2CCCCC2)ncc1CNCCCNC1CCCCC1`, in experiment [1], the IC50 was 194 nM.
Turning to `Nc1cc(CNCCCNC2CCCCC2)cc(CNCCCNC2CCCCC2)c1`, the IC50 in [1] worked out at 81.2 nM.
Still for that read-out and setting: next, `CNc1cc(CNCCCNC2CCCCC2)cc(CNCCCNC2CCCCC2)c1`: 67.6 nM.
On the same count and under the same terms, as for `O=[N+]([O-])c1cc(CNCCCNC2CCCCC2)ccc1CNCCCNC1CCCCC1`, the figure is 354 nM; as for `c1cc(CNCCCNC2CCCCC2)nc(CNCCCNC2CCCCC2)c1`, 122 nM; as for `c1ccc(CNCc2ccc(CNCc3ccccn3)cc2)nc1`, over 10000 nM.
